Measurements published in patent EP1140895B1, “THIOPYRAN COMPOUNDS AS INHIBITORS OF MMP” (FUJISAWA PHARMACEUTICAL CO., LTD., priority 1999, dated 2000).

Target: T1, human MMP-13 (Homo sapiens, UniProt P45452)
T1 construct: truncated form of human recombinant MMP-13; purchased Chondrex, USA
Test: Inhibitory activity of human MMP-13
Assay type: biochemical
Details: commercial kit, truncated form of human recombinant MMP-13, fluorogenic peptide substrate, 1 hour at 35°C
Description: The inhibitory potential of test compounds against human MMP-13 were assayed by using commercial kit (Chondrex, USA) contained truncated form of human recombinant MMP-13 and fluorogenic peptide substrate. Activity of human MMP-13 was determined by monitoring the degradation of fluorogenic peptide substrate after incubation for 1 hour at 35°C and estimated by measuring the fluorescence intensity of degraded peptide substrate at 495 nm (excitation) and 520 nm (emission).
Inhibitory activity of human MMP-13 as mentioned above.

IC50: 2.2 nM
SMILES: O=C(CC1(c2ccc(Oc3ccc(Cl)cc3)cc2)CCCCS1(=O)=O)NO (single isomer, unassigned) [Example 15, (R or S)-(-)-2-[4-(4-chlorophenoxy)phenyl]-3,4,5,6-tetrahydro-N-hydroxy-2H-thiopyran-2-acetamide 1,1-dioxide]
